From US9737517B2, “Pharmaceutical use of hexahydro-dibenzo[a,g]quinolizine compounds” (SHANGHAI INSTITUTE OF MATERIA MEDICA, CHINESE ACADEMY OF …, priority 2013, dated 2017)

How the values were obtained:
SD rats [1] = test: Repetitive dose toxicity experiment on SD rats for 14 days; format: in vivo; conditions: oral, 100 and 200 mg/kg for 14 days
[2] = Stability of the compound on heating; format: physicochemical; conditions: heated at 80° C. for 24 hours
Procedure: Compound DC037009 was heated at 80° C. for 24 hours, and the compound purity only varied 0.5%.

[3] = In vitro metabolism in mouse liver microsomes; format: in vitro ADME, mice
Procedure: (§1) The total volume of each incubation system was 200 μL, and the medium was 100 mM phosphate buffer solution (PBS, pH7.4) comprising a final concentration of 3 μM DC037009 and 2 mM NADPH. A37° C. water bath was used for incubation. After 3 minutes of pre-incubation, various liver microsomes protein were added into the buffer-substrate-cofactors mixture to start reaction. The concentration of liver microsomal protein of various species was 1.0 mg/mL. After reacting 60 min, the reaction was terminated with isovolumetric ice-cold acetonitrile. The total volume of blank was 200 μL, and the medium was 100 mM phosphate buffer solution (PBS, pH 7.4), comprising a final concentration of 3 μM DC037009 and heat inactivated microsomal proteins. All incubation samples were double.
(§2) A 150 μL sample from each of double incubation samples was mixed. A 300 μL of acetonitrile was added, mixed by vortexing for 1 min, and centrifuged 5 min (11000 rpm). The supernatant was placed in a 10 mL tube, and dried in 40° C. with nitrogen stream. The residue was dissolved with 100 μL methanol/water (1:9, v/v). A 10 μL sample was taken for UPLC/Q-TOF MS analysis.

SD rats [4] = test: Acute toxicity experiment on SD rats by oral gavage; format: in vivo; conditions: single dose of 500 and 1000 mg/kg by oral gavage
Procedure: (§3) SD rats were administered compound DC037009 with single dose of 500 and 1000 mg/kg by oral gavage.

[5] = as above; format: in vivo; conditions: rat, in vivo, single dose, oral gavage, read-out: maximum tolerated dose (MTD)
Procedure: as §3

[6] = In vitro metabolism in rat liver microsomes; format: in vitro ADME
Procedure: as §1, §2

[7] = In vitro metabolism in dog liver microsomes; format: in vitro ADME
Procedure: as §1, §2

α1D-AR = molecular target: T1, α1D-AR (Homo sapiens, UniProt P25100); test: Calcium mobilization (Fluo-4) antagonism of phenylephrine in HEK293 cells expressing α1D-AR/Gα16; format: cell-based; conditions: phenylephrine 30 nM
T1 construct: expressed in transfected cells; host or cells: HEK293
T1 sequence (P25100 1-572): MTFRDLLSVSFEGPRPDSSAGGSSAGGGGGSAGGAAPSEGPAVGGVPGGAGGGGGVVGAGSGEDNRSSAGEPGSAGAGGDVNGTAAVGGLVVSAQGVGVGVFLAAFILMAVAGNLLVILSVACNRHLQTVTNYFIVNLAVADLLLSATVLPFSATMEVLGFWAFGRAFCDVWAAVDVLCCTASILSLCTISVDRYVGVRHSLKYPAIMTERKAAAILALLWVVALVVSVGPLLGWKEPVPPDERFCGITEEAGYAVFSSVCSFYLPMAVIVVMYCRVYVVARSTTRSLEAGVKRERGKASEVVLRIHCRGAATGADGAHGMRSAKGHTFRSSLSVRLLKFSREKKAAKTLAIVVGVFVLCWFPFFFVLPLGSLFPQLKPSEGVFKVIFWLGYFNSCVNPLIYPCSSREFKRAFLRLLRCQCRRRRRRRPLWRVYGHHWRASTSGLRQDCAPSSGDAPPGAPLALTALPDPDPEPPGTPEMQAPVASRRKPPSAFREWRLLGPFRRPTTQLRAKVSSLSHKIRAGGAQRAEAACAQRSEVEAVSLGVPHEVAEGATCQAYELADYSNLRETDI
Procedure: HEK293 cells stably expressing α1A-AR/Gα16, α1B-AR/Gα16, α1D-AR/Gα16 were seeded in a 96-well plate, and cultured for 24 hours. Then the medium was removed and 40 μL Hank's balanced salt solution (HBSS: containing 5.4 mM KCl, 0.3 mM Na2HPO4, 0.4 mM KH2PO4, 4.2 mM NaHCO3, 1.3 mM CaCl2, 0.5 mM MgCl2, 0.6 mM MgSO4, 137 mM NaCl, 5.6 mM D-glucose, and 250 μM sulfinpyrazone, pH 7.4) containing 2 μM Fluo-4 AM was added into each well, and incubated at 37° C. for 45 min. Dye was removed and 50 μL of HBSS containing either test compound or 1% DMSO (negative control) was added. After incubation at room temperature for 10 min, Flex Station 3 microplate reader was used to read the value. At specified time points, 25 μL of agonist (phenylephrine, final concentration 30 nM) was dispensed into the well automatically using the reader and fluorescence intensity change of dye caused by intracellular calcium concentration change was detected at an excitation wavelength of 485 nm and an emission wavelength of 525 nm.
After incubation with different drugs, the reaction rate of cells to 1-AR agonist phenylephrine was calculated as follows: Reaction rate %=(D−B)/(S−B)*100%;
The reaction rate of the same drug at different doses was tested using GraphPad Prism software by non-linear regression analysis, and the dose-response curve was obtained and IC50 values was measured. Data were obtained from three separate experiments, and each experiment included three duplicate wells.

[8] = In vitro metabolism in human liver microsomes; format: in vitro ADME
Procedure: as §1, §2

[9] = In vitro metabolism in monkey liver microsomes; format: in vitro ADME
Procedure: as §1, §2

[10] = 3 μM DC037009, 1.0 mg/mL microsomal protein, NADPH, 60 min, UPLC/Q-TOF MS

## COc1cc2c(cc1OC)CN1CCc3cc4c(cc3[C@@H]1C2)OCO4 [DC037009, S-(−)-2,3-methylenedioxy-10,11-dimethoxy-5,8,13,13a-tetrahydro-6H-dibenzo[a,g]quinolizine]
SD rats [1]
  changes of blood and coagulation indicators and serum biochemical indicators: did not show any toxicological significance
  death: no death rat was found
  gross anatomy: no pathological changes related to administrated drug
[2]
  variation of compound purity: 0.5%
[3]; [10]
  Mass area, mice: 6.3
[3]; 60 min incubation
  kinds of metabolites detected in mouse liver microsome: eight
  metabolic stability in mouse liver microsome: unstable
SD rats [4]
  changes after anatomy: no obvious drug-related changes
[5]
  MTD: 1000 mg/kg
[6]; [10]
  Mass area, rat: 115.4
[6]; 60 min incubation
  kinds of metabolites detected in rat liver microsome: eight
[7]; [10]
  Mass area, dog: 171.3
[7]; 60 min incubation
  kinds of metabolites detected in dog liver microsome: six
  metabolic stability in dog liver microsome: in second place
α1D-AR
  IC50: 260 nM
[8]; [10]
  Mass area, Human: 416.8
[8]; 60 min incubation
  kinds of metabolites detected in human liver microsome: Four
  metabolic stability in human liver microsome: relatively higher
[9]; [10]
  Mass area, monkey: 1.6
[9]; 60 min incubation
  kinds of metabolites detected in monkey liver microsome: seven
  metabolic stability in monkey liver microsome: unstable

## COc1cc2c(cc1OCc1ccccc1)C[C@H]1c3cc4c(cc3CCN1C2)OCO4 [DC037016]
α1D-AR
  IC50: 191 nM
